For 14 compounds, TGI results are on record in PubChem BioAssay (NCI).

The term TGI denotes the concentration giving total growth inhibition. Read a low TGI as more potent growth arrest.

Structures are written as SMILES.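 Exposure lasted 48 hours, with cells grown in 96-well plates and compounds tested at five concentrations. At the TGI there is no net growth.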 Some results are limits rather than exact numbers.

Assay in all cases: DTP human tumour cell line panel, 48 h
Assay [1] concerns SR leukemia.
For assay [2], the system named is LOX IMVI melanoma.
Assay [3] relates to NCI/ADR-RES ovarian.
Assay [4] concerns SK-OV-3 ovarian.
For assay [5], the system named is RPMI-8226 leukemia.
In assay [6] the test system is HS 578T breast.
Assay [7] concerns OVCAR-4 ovarian.
Assay [8] deals with MALME-3M melanoma.
The test system of assay [9] is HOP-62 NSCLC.
Assay [10] has as its system NCI-H522 lung.

As for `O=C(O)CCC(NC(=O)c1ccc(CNc2nc3ccccc3nc2C(=O)O)cc1)C(=O)O` (configuration not stated), the TGI in [1], in [2], in assay [3], in [4], in assay [5] and in assay [6] was more than 100 µM throughout. In addition, the TGI in [7], in assay [8] and in assay [9] was more than 100 µM each time.
Consider `O=C1NC(S(=O)(=O)O)=NNC12c1ccccc1-c1ccccc12`, for which the concentration for total growth inhibition (TGI) in assay [1], in assay [2], in [3], in [10], in [4] and in [5] was more than 10 µM each time. The TGI in [6], in assay [7], in assay [8] and in assay [9] was more than 10 µM in each case.
As to `COc1ccccc1NC(=S)Nc1cc(C)ccn1`, the TGI in assay [1], in assay [2], in assay [3], in [10], in assay [4] and in [5] was more than 100 µM throughout. Further, the TGI in [6], in [7], in [8] and in [9] was more than 100 µM in each case.
For `COc1ccc(N2C(=O)/C(=C\c3cccc(Oc4ccccc4)c3)SC2c2ccccc2)cc1` (configuration not stated), the TGI in assay [1] is 59.2 µM; in assay [2], more than 100 µM; in assay [3], more than 100 µM; in assay [10], 58.9 µM; in assay [4] it was more than 100 µM; in assay [5] it was 60.9 µM. For the same compound, the concentration for total growth inhibition (TGI) in assay [6], in assay [7], in [8] and in [9] was more than 100 µM in each case.
For the compound `Nc1c(N2CCCCC2)c(=O)nc2[nH]/c(=C\c3ccccc3)c(=O)n12`, the concentration for total growth inhibition (TGI) in [1], in [2], in assay [3], in [10], in assay [4] and in assay [5] was more than 100 µM each time. For the same compound, the TGI in assay [6], in assay [7] and in [8] was more than 100 µM in each case.
Turning to `Cn1c(-c2ccc(N=NNc3ccc(-c4n[nH]c(=S)n4C)cc3)cc2)n[nH]c1=S`, the TGI in [1] is more than 100 µM; in assay [2], more than 100 µM; in assay [3], more than 100 µM; in assay [10] it was more than 100 µM; in assay [4], 54.9 µM; in assay [6], more than 100 µM. For the same compound, the TGI in [7] is more than 100 µM; in [8], more than 100 µM; in [9], 69.4 µM.
Turning to `N#Cc1c(-c2ccccc2)c(C#N)c(=O)n(C2OC(CO)C(O)C(O)C2O)c1S` (configuration not stated), the TGI in assay [1], in assay [2], in [3], in assay [10], in assay [4] and in assay [5] was more than 100 µM each time. Besides, the concentration for total growth inhibition (TGI) in assay [6], in [8] and in [9] was more than 100 µM in each case.
For `O=c1[nH]c(=O)n(C/C=C/CBr)nc1Br`, the concentration for total growth inhibition (TGI) in assay [1] was 14.1 µM; in assay [2], 5.78 µM; in assay [3] it was 45.6 µM; in assay [10] it was 14.5 µM; in assay [5], 23.3 µM; in assay [6], 53.8 µM. Also, the values for the TGI in assay [7], in assay [8] and in [9] were 22.9 µM, 27.5 µM and 37.9 µM, respectively.
Turning to `COc1ccc(Nc2nc3ccccc3nc2C(=O)O)cc1OC`, the TGI in assay [1], in assay [2], in [3], in assay [10], in assay [4] and in assay [5] was more than 100 µM throughout. Moreover, the TGI in assay [6], in [8] and in assay [9] was more than 100 µM in each case.
As for `BrCC(Br)(c1ccccc1)c1ccccc1-c1cc(-c2ccccc2)cc(-c2ccccc2)n1` (configuration not stated), the TGI was more than 52.7 µM in assay [1]; 5.88 µM in [2]; more than 100 µM in assay [3]; 10.5 µM in assay [10]; 18.2 µM in assay [5]; 26 µM in assay [6]. Also, the TGI in assay [7] stood at 53.9 µM; in assay [8] it was 16.4 µM; in assay [9], 23.2 µM.
On to `C[N+](C)([O-])Cc1cc(-c2ccccc2)ccc1O`, for which the TGI in [1], in assay [2], in [3], in assay [10], in assay [6] and in [7] was more than 100 µM throughout. In addition, the TGI in assay [8] and in [9] was more than 100 µM in each case.
For `CC(=O)OCC(OC(C)=O)C(OC(C)=O)C(OC(C)=O)C(/C=N\Nc1nc2ccccc2c(=O)[nH]1)=N/Nc1nc2ccccc2c(=O)[nH]1` (configuration not stated), the TGI in assay [1], in assay [2], in assay [3], in [10], in assay [4] and in assay [5] was more than 100 µM each time. Besides, the TGI in assay [6], in [8] and in assay [9] was more than 100 µM each time.
As to `C=C1CC(COc2ccc3c(C)cc(=O)oc3c2)(c2ccccc2)OC1=O` (configuration not stated), the TGI in [1] is more than 31.6 µM; in [2] it was 3.1 µM; in assay [3], 16.6 µM; in [10] it was 3.37 µM; in [4], 14.9 µM; in [5], 1.62 µM. The TGI is more than 27 µM in [6], 1.9 µM in assay [8] and 31 µM in [9].
With `O=[As](O)(O)c1ccc2nc3cc([As](=O)(O)O)ccc3nc2c1`, the TGI in [1], in [2], in assay [3], in assay [10], in [6] and in [7] was more than 100 µM each time. The total growth inhibition concentration (TGI) in [8] and in [9] was more than 100 µM each time.
